Results as given in US11679107B2 (Eisai R&D Management Co., Ltd., priority 2018, dated 2023).
Where two headings read alike, the source gives them in different places.

Tests used:
SF3b complexes = target: T1, SF3b complexes (Homo sapiens, UniProt O75533+Q7RTV0); assay: Scintillation proximity assay (SPA) with [3H]-labelled pladienolide probe; format: binding; details: SF3B1 (WT); geometric mean; read-out: SPA-ATS GMean IC50 (nM) SF3B1 (WT)
T1 construct: endogenous in cells; host or cells: Nuclear extracts; A HeLa S3 extract preparation is described for the in vitro splicing assay
Summary of the method: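 SF3b complexes captured from nuclear extracts on anti-SF3B1 antibody SPA beads; test compounds pre-incubated 30 min before 2.5 nM [3H]-pladienolide probe added, then 30 min incubation. Bound probe read by scintillation; values from non-linear regression of concentration–response curves.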

[1] = system: NCI-H1568 cells (high MCL1); assay: Cell proliferation and viability, CellTiter-Glo, 72 hours; format: cell-based; details: for GI50: geometric mean
Summary of the method: (§1)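 RPMI-1640/10% FBS (Panc: + insulin, FBS 15%); 11-pt half-log dose, ~10 μM-100 pM, 0.1% DMSO; 37° C, 5% CO2; ATP luminescence read; % inhibition vs T0 and vehicle, −100% cidal to 100% uninhibited growth.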

[2] = system: Panc 05.04 cells (SF3b K700E mutant); assay: as above; format: cell-based; details: for GI50: geometric mean
Summary of the method: as §1

[3] = system: Ad2 variant pre-mRNAs spliced in HeLa S3 nuclear extracts; assay: In vitro splicing assay (IVS), RT-qPCR of spliced product; format: biochemical; details: for IC50: geometric mean; for Ratio Ad2.1/2.2: ratio of IVS IC50 Ad2.1 to Ad2.2
Summary of the method: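 Read-out is one-step TaqMan RT-qPCR of spliced Ad2 mRNA with Ftz as reference, normalized to DMSO and fit by non-linear regression. Reactions held HeLa S3 nuclear extract, 2 ng Ad2-derived pre-mRNA and test compound, with 15 min preincubation. Splicing was started with ATP-containing activation buffer and run 90 min at 30 °C.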

[4] = 72 h, NCIH1568.1, -100% = cidal, 0% = static, 100% = uninhibited growth
[5] = NCI-H1568, read-out: CTGlo-ATS GMean GI50 (nM) 72 h NCIH1568.1, 72 h, NCIH1568.1
[6] = 72 h, PANC0504.1, -100% = cidal, 0% = static, 100% = uninhibited growth
[7] = Panc 05.04, read-out: CTGlo-ATS GMean GI50 (nM) 72 h PANC0504.1, 72 h, PANC0504.1
[8] = NCI-H1568, 72 h, read-out: CTGlo-ATS GMean GI50 (nM) 72 h NCIH1568.1, NCIH1568.1 cells, 72 h
[9] = NCIH1568.1 cells, 72 h, −100% cidal, 0% static, 100% maximal growth
[10] = Ad2.1 pre-mRNA substrate, read-out: qPCR-IVS-ATS GMean IC50 (nM) Ad2.1
[11] = Ad2.2 pre-mRNA substrate, read-out: qPCR-IVS-ATS GMean IC50 (nM) Ad2.2
[12] = NCI-H1568, read-out: CTGlo-ATS GMean GI50 (nM) 72 h NCIH1568.1, NCIH1568.1 cells, 72 h

Structure (SMILES): C/C(=C\c1cccc(COC(=O)N2CCC3(COC3)C2)c1)[C@H]1OC(=O)C[C@H](O)CC[C@H](C)[C@@H](OC(=O)N2CCN(C)CC2)/C=C/[C@@H]1C [Compound 255, [3-[(E)-2-[(2S,3S,4E,6R,7S,10R)-10-hydroxy-3,7-dimethyl-6-(4-methylpiperazine-1-carbonyl)oxy-12-oxo-1-oxacyclododec-4-en-2-yl]prop-1-enyl]phenyl]methyl 2-oxa-7-azaspiro[3.4]octane-7-carboxylate]
- IC50 (SF3b complexes): 7.32 nM
- CTGlo-ATS Mean MinResponse % 72 h NCIH1568.1 [1, 4]: −24.942%
- GI50 [1, 5]: 67.6 nM
- CTGlo-ATS Mean MinResponse % 72 h PANC0504.1 [2, 6]: −61.401%
- GI50 [2, 7]: 65.8 nM

Structure (SMILES): COCCN1CCN(c2cc(F)cc(/C=C(\C)[C@H]3OC(=O)C[C@H](O)CC[C@H](C)[C@@H](OC(=O)N4CCN(C)CC4)/C=C/[C@@H]3C)c2)CC1=O [Compound 105]
- IC50 (SF3b complexes): 2.87 nM
- GI50 [1, 8]: 6.95 nM
- CTGlo-ATS Mean MinResponse % 72 h NCIH1568.1 [1, 9]: −68.464%
- CTGlo-ATS Mean MinResponse % 72 h PANC0504.1 ([2]; PANC0504.1 cells, 72 h, −100% cidal, 0% static, 100% maximal growth): −90.949%
- GI50 ([2]; Panc 05.04, 72 h, read-out: CTGlo-ATS GMean GI50 (nM) 72 h PANC0504.1, PANC0504.1 cells, 72 h): 5.85 nM

Structure (SMILES): C/C(=C\c1cccc(S(=O)(=O)N2CCC(F)(F)C2)c1)[C@H]1OC(=O)C[C@H](O)CC[C@H](C)[C@@H](OC(=O)N2CCN(C)CC2)/C=C/[C@@H]1C [Compound 204, [(2S,3S,4E,6R,7S,10R)-2-[(E)-1-[3-(3,3-difluoropyrrolidin-1-yl)sulfonylphenyl]prop-1-en-2-yl]-10-hydroxy-3,7-dimethyl-12-oxo-1-oxacyclododec-4-en-6-yl] 4-methylpiperazine-1-carboxylate]
- IC50 (SF3b complexes): 23.5 nM
- CTGlo-ATS Mean MinResponse % 72 h NCIH1568.1 [1, 4]: −24.924%
- GI50 [1, 5]: 81.9 nM
- CTGlo-ATS Mean MinResponse % 72 h PANC0504.1 [2, 6]: −94.081%
- GI50 [2, 7]: 82 nM

Structure (SMILES): CC(=O)N1CCC(N(C)c2cc(F)cc(/C=C(\C)[C@H]3OC(=O)C[C@H](O)CC[C@H](C)[C@@H](OC(=O)N4CCN(C)CC4)/C=C/[C@@H]3C)c2)CC1 [Compound 177]
- IC50 (SF3b complexes): 2.38 nM
- IC50 [3, 10]: 18.2 nM
- IC50 [3, 11]: 10.3 nM
- GI50 [1, 12]: 3.62 nM
- CTGlo-ATS Mean MinResponse % 72 h NCIH1568.1 [1, 9]: −80.643%

Structure (SMILES): C/C(=C\c1cc(F)cc(N2CCN(C(=O)Cn3cccn3)CC2)c1)[C@H]1OC(=O)C[C@H](O)CC[C@H](C)[C@@H](OC(=O)N2CCN(Cc3cccc(O)c3)CC2)/C=C/[C@@H]1C [Compound 251, [(2S,3S,4E,6R,7S,10R)-2-[(E)-1-[3-fluoro-5-[4-(2-pyrazol-1-ylacetyl)piperazin-1-yl]phenyl]prop-1-en-2-yl]-10-hydroxy-3,7-dimethyl-12-oxo-1-oxacyclododec-4-en-6-yl] 4-[(3-hydroxyphenyl)methyl]piperazine-1-carboxylate]
- IC50 (SF3b complexes): 52.4 nM
- IC50 [3, 10]: 49.7 nM
- IC50 [3, 11]: 28.1 nM
- Ratio Ad2.1/2.2 [3]: 1.765
- CTGlo-ATS Mean MinResponse % 72 h NCIH1568.1 [1, 4]: −87.236%
- GI50 [1, 5]: 13.4 nM

Structure (SMILES): C/C(=C\c1cc(F)cc(N2CCN(C(=O)[C@@H]3CCOC3)CC2)c1)[C@H]1OC(=O)C[C@H](O)CC[C@H](C)[C@@H](OC(=O)N2CCN(C)CC2)/C=C/[C@@H]1C [Compound 152]
- IC50 (SF3b complexes): 3.83 nM
- IC50 [3, 10]: 16.2 nM
- IC50 [3, 11]: 8.39 nM
- GI50 [1, 8]: 1.51 nM
- CTGlo-ATS Mean MinResponse % 72 h NCIH1568.1 [1, 9]: −80.509%

Structure (SMILES): C/C(=C\c1cc(F)cc(N2CCN(C(=O)Cn3cccn3)CC2)c1)[C@H]1OC(=O)C[C@H](O)CC[C@H](C)[C@@H](OC(=O)N2CCN(C)C(C)(C)C2)/C=C/[C@@H]1C [Compound 232, [(2S,3S,4E,6R,7S,10R)-2-[(E)-1-[3-fluoro-5-[4-(2-pyrazol-1-ylacetyl)piperazin-1-yl]phenyl]prop-1-en-2-yl]-10-hydroxy-3,7-dimethyl-12-oxo-1-oxacyclododec-4-en-6-yl] 3,3,4-trimethylpiperazine-1-carboxylate]
- IC50 (SF3b complexes): 5.01 nM
- IC50 [3, 10]: 15.3 nM
- IC50 [3, 11]: 9.5 nM
- Ratio Ad2.1/2.2 [3]: 1.613
- CTGlo-ATS Mean MinResponse % 72 h NCIH1568.1 [1, 4]: −78.974%
- GI50 [1, 5]: 4.67 nM

Structure (SMILES): C/C(=C\c1cc(F)cc(N2CCN(C(=O)Cn3cccn3)CC2)c1)C1OC(=O)CC(O)CC[C@H](C)[C@@H](OC(=O)NC(C)CO)/C=C/C1C (stereo in doubt) [Compound 229, [(2R,3R,4E,6R,7S,10S)-2-[(E)-1-[3-fluoro-5-[4-(2-pyrazol-1-ylacetyl)piperazin-1-yl]phenyl]prop-1-en-2-yl]-10-hydroxy-3,7-dimethyl-12-oxo-1-oxacyclododec-4-en-6-yl] N-[(2S)-1-hydroxypropan-2-yl]carbamate]
- IC50 (SF3b complexes): 17.1 nM
- IC50 [3, 10]: 329 nM
- IC50 [3, 11]: 12.2 nM
- Ratio Ad2.1/2.2 [3]: 27.000
- CTGlo-ATS Mean MinResponse % 72 h NCIH1568.1 [1, 4]: −65.653%
- GI50 ([1]; NCI-H1568, 72 h, read-out: CTGlo-ATS GMean GI50 (nM) 72 h NCIH1568.1, 72 h, NCIH1568.1): 13.4 nM

Structure (SMILES): C/C(=C\c1cc(F)cc(N2CCN(C(=O)C3(C)COC3)CC2)c1)[C@H]1OC(=O)C[C@H](O)CC[C@H](C)[C@@H](OC(=O)N2CCN(C)CC2)/C=C/[C@@H]1C [Compound 154]
- IC50 (SF3b complexes): 3.75 nM
- IC50 [3, 10]: 20 nM
- IC50 [3, 11]: 8.72 nM
- GI50 [1, 12]: 1.85 nM
- CTGlo-ATS Mean MinResponse % 72 h NCIH1568.1 [1, 9]: −85.459%

Structure (SMILES): C/C(=C\c1cc(F)cc(N(C)C2CCN(C(=O)Nc3ccccc3)CC2)c1)[C@H]1OC(=O)C[C@H](O)CC[C@H](C)[C@@H](OC(=O)N2CCN(C)CC2)/C=C/[C@@H]1C [Compound 193]
- IC50 (SF3b complexes): 127 nM
- IC50 [3, 10]: 47.8 nM
- IC50 [3, 11]: 19.6 nM
- GI50 [1, 12]: 17.2 nM
- CTGlo-ATS Mean MinResponse % 72 h NCIH1568.1 [1, 9]: −89.438%

Structure (SMILES): C/C(=C\c1cc(F)c2cnn(C3CCC(F)(F)CC3)c2c1)[C@H]1OC(=O)C[C@H](O)CC[C@H](C)[C@@H](OC(=O)N2CCN(C)CC2)/C=C/[C@@H]1C [Compound 195]
- IC50 (SF3b complexes): 69.3 nM
- IC50 [3, 10]: 91.9 nM
- IC50 [3, 11]: 58.3 nM
- GI50 [1, 12]: 6.59 nM
- CTGlo-ATS Mean MinResponse % 72 h NCIH1568.1 [1, 9]: −95.559%

Structure (SMILES): C/C(=C\c1cc(F)cc(N2CCN(C(=O)[C@@H](C)O)CC2)c1)[C@H]1OC(=O)C[C@H](O)CC[C@H](C)[C@@H](OC(=O)N2CCN(C)CC2)/C=C/[C@@H]1C [Compound 81]
- IC50 (SF3b complexes): 2.59 nM
- IC50 [3, 10]: 9.07 nM
- IC50 [3, 11]: 4.95 nM
- GI50 [1, 12]: 2.18 nM
- CTGlo-ATS Mean MinResponse % 72 h NCIH1568.1 [1, 9]: −83.963%

Structure (SMILES): C/C(=C\c1cc(F)c2nnn(C3CCS(=O)(=O)CC3)c2c1)[C@H]1OC(=O)C[C@H](O)CC[C@H](C)[C@@H](OC(=O)N2CCN(C)CC2)/C=C/[C@@H]1C [Compound 158]
- IC50 (SF3b complexes): 13.9 nM
- IC50 [3, 10]: 18.9 nM
- IC50 [3, 11]: 18.2 nM
- GI50 [1, 12]: 6.57 nM
- CTGlo-ATS Mean MinResponse % 72 h NCIH1568.1 [1, 9]: −87.167%
